Measurements as given in paper PMC7696666, “Epithelial Transfer of the Tyrosine Kinase Inhibitors Erlotinib, Gefitinib, Afatinib, Crizotinib, Sorafenib, Sunitinib, and Dasatinib: Implications for Clinical Resistance” (Cancers, 2020).
Read-outs that look alike come from different tables or passages of the source.

Key:
[1] = CaCo2 Transwell transport (Papp, efflux ratio); format: in vitro ADME, human; details: human; for efflux ratio at 180 min, 10 µM / efflux ratio at 180 min, 20 µM: read-out: Efflux Ratio (Papp B–A / Papp A–B); for Papp A→B at 180 min, 10 µM / Papp A→B at 180 min, 20 µM: read-out: Papp (Apical Basolateral); for Papp B→A at 180 min, 10 µM / Papp B→A at 180 min, 20 µM: read-out: Papp (Basolateral Apical); for efflux ratio at 180 min, 20 µM: Caco-2, 20 µM
Procedure: (§1) The Transwell system was developed using the wild type Caco-2 cell line (passage 15–25) cultured in Dulbecco’s […] medium (DMEM) at standard conditions of 37 °C, 5% CO2, and 100% humidity as previously reported. […] To ensure a controlled growth environment the plate was covered with Breathe-Easier cell culture foil during the incubation period. The integrity of the developed monolayer was assessed by TEER before administration of compound solutions and after the final sampling stage.
(§2) The initial concentration of the drug was verified from a 20 µL sample taken immediately from the donor compartment after drug administration (t = 0).
(§3) The permeability coefficient (Papp) represents a measure for the efficiency of transport and was calculated with the following equation: Papp=ΔQ/Δt×V/C0⋅A where ∆Q/∆t = the rate of increase in drug concentration (accumulative mass transport) in the receiver compartment over time (µM/s), V = volume in the receiver compartment (mL), C0 = the initial concentration of drug in the donor compartment (µM), and A = the membrane surface area (cm^2).
(§4) To take into account the slightly nonlinear transfer characteristics of each compound, the rate of increase in drug concentration was determined for each time period and the Papp was then calculated. The average Papp was then determined with units of cm/s × 10^−6 or µm/s.
(§5) The efflux ratio was calculated according to the equation: Efflux ratio=PappB→A/PappA→B.
(§6) Statistical significance was determined using a simple Student’s t-test where a p value of <0.05 was considered significant.

CaCo2 monolayer [2] = experiment: CaCo2 Transwell transport (Papp, efflux ratio); format: in vitro ADME, human
Procedure: as §1, §2, §3, §4, §5, §6

CaCo2 cells = experiment: Intracellular accumulation in CaCo2 Transwell cells at the end of the transport period; format: in vitro ADME, human; details: A->B incubation
Procedure: (§7) In order to get insight in the barrier role of the CaCo2 model system, we determined the intracellular accumulation of the TKISs at the end of the transport period, in normal monolayers of CaCo2 cells and in several other colon cancer cell lines. At the end of the transport period (both from the B->A and A->B incubations), cells were harvested and intracellular accumulation was determined.
These cells were exposed to 20 μM of a TKI and were harvested after 2 h for determination of TKI concentration with LC-MS-MS. Values are means ± SEM for the number of experiments described in Figure 3, Figure 4, and Figure 5 and from three separate experiments for the monolayer CaCo2 and WiDr cells. […] A->B, mass transport from A to B; B->A, mass transport from B to A. For AFA, CRI, and DAS, no data in WiDr cells were available. […] The bar heights were not read.
In a different set of experiments, the CaCo2 cells were cultured in 6-wells plates as monolayers until semiconfluency. Two other colon cancer cell lines, WiDr and HT29, were cultured similarly. These cells were exposed for 2 h to various TKIs at concentrations varying from 50 nM to 20 µM). […] At the end of the incubation, cells were harvested, as described earlier, and extracted for drug analysis using LC-MS-MS as described above.

CaCo2 monolayer [3] = details: cited from earlier work
[4] = parameters: method as in PMID 30544701; details: method not given, ref [45], cited from earlier work
HT29 cells = experiment: Intracellular accumulation in HT29 colon cancer cells; format: in vitro ADME; details: after 24 h
Procedure: as §7
In a different set of experiments, the CaCo2 cells were cultured in 6-wells plates as monolayers until semiconfluency. Two other colon cancer cell lines, WiDr and HT29, were cultured similarly. […]

[5] = Disposition in blood compartments (whole blood, plasma, serum) of patients; format: in vivo, human; details: for blood plasma ratio: human, whole blood and plasma, oral
Procedure: Each individual sample was divided into two components; a 1 mL of tube of whole blood and 0.5 of plasma, each sample was stored at −20 °C until analysis could be performed. An additional serum sample was also obtained for patients treated with erlotinib. Blood samples for afatinib were obtained from NSCLC patients after 4 days receiving the standard daily dose of 40 mg.
Blood samples were taken at 1, 2, and 30 days after the start of treatment. Samples were separated from the whole blood into plasma, serum, and a packed red blood cell pellet (using the MESED apparatus). In a dose escalation study in order to determine whether a high pulsatile dose of sorafenib could be given to patients, we analyzed red blood cells and whole blood in 12 patients treated with sorafenib at total doses ranging from 2000 to 2800 mg daily. From these patients, samples were collected in 3 cycles.
For sunitinib, initially pharmacokinetic samples were collected over the first 24 h period from a single patient, with a renal cell carcinoma receiving a nonstandard treatment schedule (700 mg biweekly), in comparison to the standard 50 mg daily dose. Whole blood samples were divided into plasma, serum, and a packed red blood cell pellet. This cohort could later be extended with 6 patients treated with 800 mg sunitinib every 2 weeks enrolled in a clinical study to determine the tolerability of pulsatile sunitinib.
Five blood samples were taken over a 5-month period and divided into whole blood, an extracted 100 µL of red blood cells, and a plasma sample.

[6] = Caco-2, with erlotinib (co-incubated, concentration not stated), 10 µM, with erlotinib

Compound `COc1cc2ncnc(Nc3ccc(F)c(Cl)c3)c2cc1OCCCN1CCOCC1` [Gefitinib, gefitinib] has an efflux ratio at 180 min, 10 µM ([1]; Caco-2, 10 µM) of 0.33, a Papp A→B at 180 min, 10 µM ([1]; Caco-2, 10 µM) of 0.57 ± 0.43 ×10⁻⁶ cm/s and a Papp B→A at 180 min, 10 µM ([1]; Caco-2, 10 µM) of 0.19 ± 0.12 ×10⁻⁶ cm/s. The “Efflux Ratio (Papp B–A / Papp A–B)” value (CaCo2 monolayer [2]; 10 µM) was 0.3, the Papp apical to basolateral (CaCo2 monolayer [2]; 10 µM, A–B) was 0.57 ×10⁻⁶ cm/s and the “Papp basolateral to apical” value (CaCo2 monolayer [2]; 10 µM, B–A) was 0.19 µm/s. For the same compound, the “Intracellular accumulation at the end of the transfer period (A->B)” value (“Intracellular accumulation at the end” for short) (CaCo2 cells) was 0.79 pmol/μg protein, the “Papp (Apical Basolateral)” value (CaCo2 monolayer [3]; 20 µM, A–B, previously reported, ref [39]) was 0.38 ± 0.05 ×10^−6 cm/s and the “Papp (Basolateral Apical)” value (CaCo2 monolayer [3]; 20 µM, B–A, previously reported, ref [39]) was 0.39 ± 0.038 ×10^−6 cm/s. For the same compound, the “Efflux Ratio (Papp B–A / Papp A–B)” value (CaCo2 monolayer [3]; 20 µM, previously reported, ref [39]) was 1.0, the “Efflux ratio after treatment with NaN3” value (CaCo2 monolayer [3]; after NaN3, ref [38],[39]) was 0.46 and the “Log P” value [4] was 4.11. For the same compound, the “Log D (pH 5.5)” value [4] was 1.96 and the “Log D (pH 7.5)” value [4] was 3.55.
`CNC(=O)c1cc(Oc2ccc(NC(=O)Nc3ccc(Cl)c(C(F)(F)F)c3)cc2)ccn1` [Sorafenib, sorafenib] gave an efflux ratio at 180 min, 10 µM ([1]; Caco-2, 10 µM) of 0.92, an efflux ratio at 180 min, 20 µM [1] of 0.86 and an efflux ratio at 180 min, 10 µM [1, 6] of 0.71. The Papp A→B at 180 min, 10 µM [1, 6] was 18.6 ± 13.2 ×10⁻⁶ cm/s, the Papp B→A at 180 min, 10 µM [1, 6] was 13.3 ± 10.5 ×10⁻⁶ cm/s and the Papp A→B at 180 min, 10 µM ([1]; Caco-2, 10 µM) was 10.1 ± 9.5 ×10⁻⁶ cm/s. The Papp B→A at 180 min, 10 µM ([1]; Caco-2, 10 µM) was 9.3 ± 5.8 ×10⁻⁶ cm/s, the Papp A→B at 180 min, 20 µM ([1]; Caco-2) was 14.1 ± 11.5 ×10⁻⁶ cm/s and the Papp B→A at 180 min, 20 µM ([1]; Caco-2) was 11.4 ± 5.6 ×10⁻⁶ cm/s. The “Efflux Ratio (Papp B–A / Papp A–B)” value (CaCo2 monolayer [2]; 20 µM) was 0.81, the “Total amount transferred apical to basolateral in 3 h” value (CaCo2 monolayer [2]; 20 µM, A–B) was “approximately 950 pmol” and the “Efflux Ratio (Papp B–A / Papp A–B)” value (CaCo2 monolayer [2]; 20 µM, listed as sorafenib) was 0.8. The “Intracellular accumulation at the end” value (CaCo2 cells) was 1.65 pmol/μg protein, the “Intracellular accumulation in HT29 cells” value (HT29 cells) was 6 pmol/μg protein and the blood plasma ratio ([5]; 2000–2800 mg cumulative daily dose, 12 patients, mean ± SD, read-out: Whole blood/plasma ratio) was 1.2 ± 0.4. The blood plasma ratio ([5]; clinical samples, read-out: Blood to plasma ratio) was over 3, the “Fold increase of concentration in whole blood compared to plasma” value ([5]; low dose (400 mg twice daily), several patients) was 2–4 fold and the “Log P” value [4] was 5.16. For the same compound, the “Log D (pH 5.5)” value [4] was 4.26 and the “Log D (pH 7.5)” value [4] was 4.26.
Compound `CCN(CC)CCNC(=O)c1c(C)[nH]c(/C=C2\C(=O)Nc3ccc(F)cc32)c1C` [Sunitinib, sunitinib] has an efflux ratio at 180 min, 20 µM [1] of 1.6, a Papp A→B at 180 min, 20 µM ([1]; Caco-2) of 7.7 ± 4.6 ×10⁻⁶ cm/s and a Papp B→A at 180 min, 20 µM ([1]; Caco-2) of 12.6 ± 12.3 ×10⁻⁶ cm/s. For the same compound, the “Total amount transferred apical to basolateral in 3 h” value (CaCo2 monolayer [2]; 20 µM, A–B) was 581.2 pmol, the “Intracellular accumulation at the end” value (CaCo2 cells) was 11.9 pmol/μg protein and the “Intracellular accumulation in HT29 cells” value (HT29 cells) was 32.2 pmol/μg protein. For the same compound, the blood plasma ratio ([5]; 50 mg, standard treatment at 50 mg, read-out: Whole blood/plasma ratio) was 0.7, the blood plasma ratio ([5]; single dose 14-fold higher than standard, 7 patients, mean ± SD, read-out: Whole blood/plasma ratio) was 2.6 ± 0.7 and the “Whole blood concentration lower than plasma” value ([5]; standard dosing regimen) was 40–50%. For the same compound, the “Log P” value [4] was 3.15, the “Log D (pH 5.5)” value [4] was −0.09 and the “Log D (pH 7.5)” value [4] was 1.09.
